ChEMBL document CHEMBL3217613, “Novel thalidomide analogues with potent NFB and TNF expression inhibition” (Medchemcomm, 2011)

Experiments:
Type in all cases: cell-based
[1] = target: T1, Nuclear factor NF-kappa-B complex (Homo sapiens) (UniProt Q00653+P19838+Q04206); assay: Inhibition of NFkappaB in human FRT-Jurkat cells expressing GFP assessed as reduction of TNF expression at 10 uM after 24 hrs by flow cytometry relative to control
Jurkat = assay: Cytotoxicity against human FRT-Jurkat cells assessed as reduction of cell viability by measuring cleaved caspase 3 at 10 uM by flow cytometer
[2] = target: T1, Nuclear factor NF-kappa-B complex (Homo sapiens); assay: Inhibition of NFkappaB in human FRT-Jurkat cells expressing GFP assessed as reduction of TNF expression at 100 uM after 24 hrs by flow cytometry relative to control
[3] = target: T1, Nuclear factor NF-kappa-B complex (Homo sapiens); assay: Ratio of thalidomide to compound for inhibition of NFkappaB in human FRT-Jurkat cells expressing GFP assessed as reduction of TNF expression at 10 uM

T1 sequence (P19838 whole entry, looked up): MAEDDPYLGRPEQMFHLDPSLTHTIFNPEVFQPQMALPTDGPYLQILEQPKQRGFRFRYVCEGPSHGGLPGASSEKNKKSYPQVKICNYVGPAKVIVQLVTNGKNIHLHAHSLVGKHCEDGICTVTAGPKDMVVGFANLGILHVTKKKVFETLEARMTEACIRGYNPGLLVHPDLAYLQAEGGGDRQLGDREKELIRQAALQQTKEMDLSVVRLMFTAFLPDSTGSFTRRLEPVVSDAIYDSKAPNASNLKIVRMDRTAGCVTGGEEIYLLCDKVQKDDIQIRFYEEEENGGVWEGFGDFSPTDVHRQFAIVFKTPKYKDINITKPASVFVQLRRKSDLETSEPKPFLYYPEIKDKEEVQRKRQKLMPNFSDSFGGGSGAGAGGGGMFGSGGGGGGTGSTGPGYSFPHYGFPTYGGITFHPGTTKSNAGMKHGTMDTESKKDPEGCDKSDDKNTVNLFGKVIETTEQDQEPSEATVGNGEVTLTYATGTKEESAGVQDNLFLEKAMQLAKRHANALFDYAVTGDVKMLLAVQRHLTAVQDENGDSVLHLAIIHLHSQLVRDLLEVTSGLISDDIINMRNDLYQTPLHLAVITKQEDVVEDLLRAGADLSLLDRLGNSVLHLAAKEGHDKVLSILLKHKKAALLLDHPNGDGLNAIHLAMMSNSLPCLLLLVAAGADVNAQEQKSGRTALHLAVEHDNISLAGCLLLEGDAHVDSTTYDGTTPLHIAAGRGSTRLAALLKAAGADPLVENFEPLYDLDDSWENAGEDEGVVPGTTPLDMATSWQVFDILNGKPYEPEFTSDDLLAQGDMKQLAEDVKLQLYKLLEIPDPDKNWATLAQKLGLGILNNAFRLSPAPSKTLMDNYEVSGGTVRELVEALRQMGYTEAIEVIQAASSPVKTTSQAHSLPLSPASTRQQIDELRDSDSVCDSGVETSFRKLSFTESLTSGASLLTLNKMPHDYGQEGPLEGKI
T1 sequence (Q00653 whole entry, looked up): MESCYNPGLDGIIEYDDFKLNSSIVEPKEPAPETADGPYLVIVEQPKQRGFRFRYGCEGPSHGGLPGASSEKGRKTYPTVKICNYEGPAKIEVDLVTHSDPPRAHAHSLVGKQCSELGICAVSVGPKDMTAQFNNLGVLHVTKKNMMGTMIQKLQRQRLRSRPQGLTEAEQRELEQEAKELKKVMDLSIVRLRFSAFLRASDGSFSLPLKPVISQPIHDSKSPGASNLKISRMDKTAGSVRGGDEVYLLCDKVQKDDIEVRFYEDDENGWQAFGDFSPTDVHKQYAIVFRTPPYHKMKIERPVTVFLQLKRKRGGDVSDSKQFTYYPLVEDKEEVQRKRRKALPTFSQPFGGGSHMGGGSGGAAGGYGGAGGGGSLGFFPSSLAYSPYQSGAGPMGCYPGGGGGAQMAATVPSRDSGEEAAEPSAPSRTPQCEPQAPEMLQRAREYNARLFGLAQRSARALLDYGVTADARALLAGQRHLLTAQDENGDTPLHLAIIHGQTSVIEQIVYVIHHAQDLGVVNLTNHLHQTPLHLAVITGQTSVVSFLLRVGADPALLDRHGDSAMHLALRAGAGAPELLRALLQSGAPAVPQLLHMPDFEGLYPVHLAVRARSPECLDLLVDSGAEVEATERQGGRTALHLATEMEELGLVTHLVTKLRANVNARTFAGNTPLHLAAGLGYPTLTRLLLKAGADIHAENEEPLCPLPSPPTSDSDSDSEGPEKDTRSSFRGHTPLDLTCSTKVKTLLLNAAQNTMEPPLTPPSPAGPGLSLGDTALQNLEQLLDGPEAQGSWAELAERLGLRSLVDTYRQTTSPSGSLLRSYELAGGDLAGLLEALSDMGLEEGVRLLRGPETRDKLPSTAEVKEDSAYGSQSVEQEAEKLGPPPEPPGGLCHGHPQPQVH
T1 sequence (Q04206 whole entry, looked up): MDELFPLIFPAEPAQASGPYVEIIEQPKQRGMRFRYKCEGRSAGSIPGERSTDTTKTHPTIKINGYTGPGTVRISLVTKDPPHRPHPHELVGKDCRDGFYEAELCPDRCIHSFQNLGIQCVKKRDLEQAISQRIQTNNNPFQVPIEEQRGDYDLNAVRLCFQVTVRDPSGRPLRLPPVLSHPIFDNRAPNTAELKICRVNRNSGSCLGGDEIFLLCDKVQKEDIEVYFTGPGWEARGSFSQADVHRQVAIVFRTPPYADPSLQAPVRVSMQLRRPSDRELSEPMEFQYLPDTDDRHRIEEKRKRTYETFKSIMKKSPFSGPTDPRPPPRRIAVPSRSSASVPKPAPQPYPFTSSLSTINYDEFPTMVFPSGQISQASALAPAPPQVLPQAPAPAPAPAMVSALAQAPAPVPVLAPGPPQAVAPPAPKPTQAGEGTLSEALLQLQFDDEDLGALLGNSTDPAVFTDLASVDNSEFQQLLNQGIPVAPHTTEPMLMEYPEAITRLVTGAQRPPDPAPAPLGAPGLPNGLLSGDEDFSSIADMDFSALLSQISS

Compound | inhibition [1] | inhibition [2] | Ratio [3] | Activity (Jurkat)
CCCc1ccc(Nc2ccc3c(c2)C(=O)N(C2CCC(=O)NC2=O)C3=O)cc1 (configuration not stated) | 10% |  |  | 
CCCCCc1ccc(Nc2ccc3c(c2)C(=O)N(C2CCC(=O)NC2=O)C3=O)cc1 (configuration not stated) | 12% |  |  | 
O=C1CCC(N2C(=O)c3cccc(Nc4ccccn4)c3C2=O)C(=O)N1 (configuration not stated) | 1% |  |  | 89%
O=C1CCC(N2C(=O)c3ccccc3C2=O)C(=O)N1 (racemic) | 2% | 4% |  | 
Cc1ccccc1Nc1cccc2c1C(=O)N(C1CCC(=O)NC1=O)C2=O (configuration not stated) | 7% |  |  | 89%
Cc1ccc(Nc2ccc3c(c2)C(=O)N(C2CCC(=O)NC2=O)C3=O)cc1 (configuration not stated) | 5% |  |  | 
COc1ccc(Nc2ccc3c(c2)C(=O)N(C2CCC(=O)NC2=O)C3=O)cc1 (configuration not stated) | 29% |  |  | 
CC(C)(C)c1ccc(Nc2ccc3c(c2)C(=O)N(C2CCC(=O)NC2=O)C3=O)cc1 (configuration not stated) | 17% |  |  | 
O=C1CCC(N2C(=O)c3ccc(Nc4ccccn4)cc3C2=O)C(=O)N1 (configuration not stated) | 9% |  |  | 
Cc1ccccc1Nc1ccc2c(c1)C(=O)N(C1CCC(=O)NC1=O)C2=O (configuration not stated) | 2% |  |  | 
CCc1ccc(Nc2ccc3c(c2)C(=O)N(C2CCC(=O)NC2=O)C3=O)cc1 (configuration not stated) | 5% |  |  | 
O=C1CCC(N2C(=O)c3ccc(Nc4ccccc4)cc3C2=O)C(=O)N1 (configuration not stated) | 6% | 17% | 2 | 
Nc1cccc2c1CN(C1CCC(=O)NC1=O)C2=O (configuration not stated) | 4% | 6% |  | 
CC(C)c1ccc(Nc2ccc3c(c2)C(=O)N(C2CCC(=O)NC2=O)C3=O)cc1 (configuration not stated) | 11% |  |  | 
CCCCCc1ccc(Nc2cccc3c2C(=O)N(C2CCC(=O)NC2=O)C3=O)cc1 (configuration not stated) | 23% |  |  | 89%
O=C1CCC(N2C(=O)c3ccc(Nc4ccc(O)cc4)cc3C2=O)C(=O)N1 (configuration not stated) | 4% |  |  | 
CN(c1ccccc1)c1ccc2c(c1)C(=O)N(C1CCC(=O)NC1=O)C2=O (configuration not stated) | -2% |  |  | 
O=C1CCC(N2C(=O)c3cccc(Nc4ccccc4)c3C2=O)C(=O)N1 (configuration not stated) | 4% | 16% |  | 89%
CC(=O)c1ccc(Nc2ccc3c(c2)C(=O)N(C2CCC(=O)NC2=O)C3=O)cc1 (configuration not stated) | -2% |  |  | 
CCOC(=O)c1ccc(Nc2ccc3c(c2)C(=O)N(C2CCC(=O)NC2=O)C3=O)cc1 (configuration not stated) | 5% |  |  | 

The next lines start with results.

inhibition [1] | inhibition [2] | Ratio [3] | Compound | Activity (Jurkat)
9% |  |  | Cc1ccc(Nc2cccc3c2C(=O)N(C2CCC(=O)NC2=O)C3=O)cc1 (configuration not stated) | 89%
17% |  |  | CCc1ccc(Nc2cccc3c2C(=O)N(C2CCC(=O)NC2=O)C3=O)cc1 (configuration not stated) | 89%
36% |  |  | CC(C)(C)c1ccc(Nc2cccc3c2C(=O)N(C2CCC(=O)NC2=O)C3=O)cc1 (configuration not stated) | 89%
13% |  |  | COc1ccc(Nc2cccc3c2C(=O)N(C2CCC(=O)NC2=O)C3=O)cc1 (configuration not stated) | 89%
19% |  |  | CC(C)c1ccc(Nc2cccc3c2C(=O)N(C2CCC(=O)NC2=O)C3=O)cc1 (configuration not stated) | 89%
4% |  |  | O=C1CCC(N2C(=O)c3cccc(Nc4ccc(O)cc4)c3C2=O)C(=O)N1 (configuration not stated) | 89%
2% |  |  | CC(=O)c1ccc(Nc2cccc3c2C(=O)N(C2CCC(=O)NC2=O)C3=O)cc1 (configuration not stated) | 89%
23% |  |  | CCCc1ccc(Nc2cccc3c2C(=O)N(C2CCC(=O)NC2=O)C3=O)cc1 (configuration not stated) | 89%
10% |  |  | CCOC(=O)c1ccc(Nc2cccc3c2C(=O)N(C2CCC(=O)NC2=O)C3=O)cc1 (configuration not stated) | 89%
